Laboratory results reported in patent US20190161418A1, “OIL-SOLUBLE PLANT MICRONUTRIENTS” (Huntsman Petrochemical LLC, priority 2016, published 2019).

Test system: corn seedlings
Experiment: Zinc uptake measurements in corn seedlings (foliar spray, ICP-MS)
Assay type: in vivo
Conditions: corn seedling aerial tissue 48 hours after spray; normalized to water control (set as 1); average of two trials; ZnSO4 1 lb Zn/acre, Zn-LAS/MSO and Zn-EDTA 0.15 lb Zn/acre, Ca-LAS/MSO 1.07 g/L
Protocol: In this example, the Zn salt of linear alkylbenzene sulfonate from example 1 was sprayed on corn seedlings that were grown in potting soil and zinc uptake into the plant leaves was measured and compared to uptake of other forms of zinc as described below. The samples that were analyzed were prepared by spraying the leaves with the particular formulation, drying the leaves after spraying, grinding the leaves, digesting them in aqua regia and measuring the concentration of zinc in solution by inductively coupled plasma mass spectrometry (ICP-MS). Spray treatment formulations were prepared as follows, based on an average delivery of 3.3 mL solution per 4 inch square pot (16 in^2 treated area): • a) deionized water only • b) Ca-LAS/MSO: 1.07 g/L in deionized water • c) ZnSO4: 1.02 g/L ZnSO4 in deionized water to approximate the recommended use rate of 1 lb Zn in 20 gallons solution per acre • d) Zn-LAS/MSO (5% w/w Zn, density 1.02 g/mL): 1.07 g/L in deionized water to approximate a use rate of 0.15 lb Zn in 20 gallons solution per acre • e) Zn-EDTA (9% w/w Zn, density 1.31 g/mL): 0.59 g/L in deionized water to approximate the recommended use rate of 0.15 lb Zn in 20 gallons solution per acre.
After 48 hours of incubation, each seedling was cut just above the soil line and the aerial tissue was used for analysis. […]

O=S(=O)([O-])[O-].[Zn+2] [ZnSO4]
Relative Zinc Concentration: 2.01
